Test results published in patent US20080152765A1, “Coated Granular Formulations” (priority 2005, published 2008).
Several values for one entry are separate records, joined by “and”; a condition that tells them apart may be missing. Equal values may be shown once.

Tests used:
Type in all cases: physicochemical
[1] = Hygroscopicity of starting material SAMe, exposure at 75% RH and 20° C.; conditions: for weight (increase in weight relative to time zero): T = 0 2.00 g
Description: The hygroscopicity of the starting material SAMe (s.m.) was determined as increase in weight, relative to the time zero, the relative content being given in p.a.: […]

[2] = Stability of the protected SAMe product relative to the starting material, 5 days at 53° C.
[3] = Increase of hygroscopicity in % by weight, SAMe, 75% RH 40° C.
[4] = Hygroscopicity and photosensitivity of starting material NADH, exposure to light, RH 75%, 20° C.; conditions: for weight (increase in weight relative to time zero): T = 0 2.00 g
Description: The hygroscopicity and photosensitivity of the starting material NADH (s.m.) was determined as increase in weight, relative to time zero, the relative content being given in p.a.: […]

[5] = Stability of the protected NADH product relative to the starting material, 5 days at 53° C.
[6] = 5 days at 53° C., listed as s.m.
[7] = 1 day exposure to light, RH 75%, 20° C.
[8] = 2 days exposure to light, RH 75%, 20° C.
[9] = 3 days exposure to light, RH 75%, 20° C.
[10] = 4 days exposure to light, RH 75%, 20° C.

## C[S+](CC[C@H](N)C(=O)O)C[C@H]1O[C@@H](n2cnc3c(N)ncnc32)[C@H](O)[C@@H]1O (stereo partly shown) [SAMe, S-adenosylmethionine]
[1]; 75% RH and 20° C., 4 days
  hygroscopicity and stability, in words: high hygroscopicity and high instability
[1]; 1 day at 75% RH and 20° C.
  % MTA: 1.5%
  % adenine + adenosine: 1.3%
  % ionic SAMe: 51.1%
  % water (KF): 2.1%
  weight (increase in weight relative to time zero): 2.40 g
[1]; 2 days at 75% RH and 20° C.
  % MTA: 1.9%
  % adenine + adenosine: 2.4%
  % ionic SAMe: 50.3%
  % water (KF): 2.9%
  weight (increase in weight relative to time zero): 2.90 g
[1]; 3 days at 75% RH and 20° C.
  % MTA: 2.4%
  % adenine + adenosine: 2.9%
  % ionic SAMe: 47.3%
  % water (KF): 3.4%
  weight (increase in weight relative to time zero): 3.50 g
[1]; 4 days at 75% RH and 20° C.
  % MTA: 3.0%
  % adenine + adenosine: 3.2%
  % ionic SAMe: 45.1%
  % water (KF): 3.8%
  weight (increase in weight relative to time zero): 4.50 g
[1]; T(0)
  % MTA: T(0) = 0.6%
  % adenine + adenosine: T(0) = 0.4%
  % ionic SAMe: T(0) = 52.1%
  % water (KF): T(0) = 1.5%
[2]; 5 days at 53° C.
  % water (KF): 1.5%
[2]; [6]
  % Ionic SAMe content: 48.5% and 47.3%
  % MTA: 3.45% and 3.87%
  % adenine + adenosine: 3.35% and 3.54%
[2]; T = 0, listed as s.m
  % Ionic SAMe content: 52.4%
  % MTA: 0.3%
  % adenine + adenosine: 0.6%
  % water (KF): 1.6%
[2]; T = 0, listed as s.m.
  % Ionic SAMe content: 52.1%
  % MTA: 0.6%
  % adenine + adenosine: 0.4%
  % water (KF): 1.5%
[3]; 1 day at 75% RH and 40° C.
  Increase of hygroscopicity in % by weight: 50%
[3]; T = 0
  Increase of hygroscopicity in % by weight: 0.00 % by weight

## NC(=O)C1=CN([C@@H]2O[C@H](COP(=O)(O)OP(=O)(O)OC[C@H]3O[C@@H](n4cnc5c(N)ncnc54)[C@H](O)[C@@H]3O)[C@@H](O)[C@H]2O)C=CC1 [NADH]
[4]; [7]
  NAD+ impurity: 1.21%
  NADH content: 97.9%
  Water (KF): 1.82%
  weight (increase in weight relative to time zero): 2.20 g
[4]; [8]
  NAD+ impurity: 1.55%
  NADH content: 97.3%
  Water (KF): 1.91%
  weight (increase in weight relative to time zero): 2.40 g
[4]; [9]
  NAD+ impurity: 2.89%
  NADH content: 96.0%
  Water (KF): 2.44%
  weight (increase in weight relative to time zero): 2.50 g
[4]; [10]
  NAD+ impurity: 3.45%
  NADH content: 95.5%
  Water (KF): 2.86%
  weight (increase in weight relative to time zero): 2.80 g
[4]; T = 0
  NAD+ impurity: 0.55%
  NADH content: 98.4%
  Water (KF): 1.2%
[5]; 5 days at 53° C.
  % NAD+ content: 2.3%
  % NADH content: 98.4%
  % water (KF): 1.5%
[5]; T = 0
  % NAD+ content: 0.5%
  % NADH content: 100.1%
  % water (KF): 1.3%
